Patent US5326902A, “Oxyalkyne compounds, pharmaceutical compositions containing them and processes for preparing such compounds and compositions” (Gruenenthal GmbH, priority 1992, dated 1994)

Assays:
5-lipoxygenase [1] = target: T1, 5-lipoxygenase (Rattus norvegicus, UniProt P12527); assay: Inhibition of 5-lipoxygenase in RBL-1-cells; format: cell-based; details: 20 μM [14C]-arachidonic acid, 20 μM calcium ionophore A 23 187, 10 minutes
T1 construct: endogenous in cells; host or cells: RBL-1 cells (rat basophilic leukemia)
T1 sequence (P12527 1-673): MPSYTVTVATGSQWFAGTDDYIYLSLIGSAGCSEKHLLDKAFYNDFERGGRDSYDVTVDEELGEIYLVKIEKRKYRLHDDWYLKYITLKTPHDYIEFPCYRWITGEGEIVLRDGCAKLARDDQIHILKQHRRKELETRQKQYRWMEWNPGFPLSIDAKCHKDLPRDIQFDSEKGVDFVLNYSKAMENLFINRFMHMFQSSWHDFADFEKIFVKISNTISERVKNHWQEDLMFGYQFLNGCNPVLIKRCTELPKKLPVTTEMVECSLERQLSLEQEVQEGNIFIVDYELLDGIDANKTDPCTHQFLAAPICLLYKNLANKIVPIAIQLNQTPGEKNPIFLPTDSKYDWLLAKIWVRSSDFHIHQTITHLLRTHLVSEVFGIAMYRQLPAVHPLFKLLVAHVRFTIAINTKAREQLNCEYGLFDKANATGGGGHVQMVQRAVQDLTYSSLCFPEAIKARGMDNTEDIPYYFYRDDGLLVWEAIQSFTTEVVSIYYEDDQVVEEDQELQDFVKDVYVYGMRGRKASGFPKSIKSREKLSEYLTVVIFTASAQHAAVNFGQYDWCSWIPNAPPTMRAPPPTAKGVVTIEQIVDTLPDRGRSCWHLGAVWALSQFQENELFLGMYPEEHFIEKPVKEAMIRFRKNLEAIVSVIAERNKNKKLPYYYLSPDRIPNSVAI
Protocol: To determine the inhibition of 5-lipoxygenase, rat basophilic leukemia cells (RBL-1-cells) were cultured in vitro, harvested by centrifugation, washed with 50 mM potassium phosphate buffer of pH 7.4, and then suspended in this buffer at 1×10^7 cells/ml. Indomethacin (10 μM) and calcium chloride (2 mM) were added to 1 ml portions of this suspension, and then the mixture was incubated either in the presence of a compound according to the invention in a concentration range of from 0,1 μM to 100 μM or in the presence of a solvent (ethanol and/or dimethyl sulfoxide) for 3 minutes and thereafter with 20 μM of [^14 C]-arachidonic acid and 20 μM of calcium ionophore A 23 187 for 10 minutes. The reaction was stopped by adding 20 μl of glacial acetic acid, and then the mixture was extracted with ethyl acetate to isolate the metabolites of arachidonic acid formed by the enzymatic action of 5-lipoxygenase. These were separated by thin layer chromatography using a solvent mixture known to be suitable for lipoxygenase products [c.f. Jakschik et al., Biochem. Biophys. Res. Commun. 102, 624 (1981)].
The distribution of radioactivity among the different metabolites of arachidonic acid was measured using a TLC Linear Analyzer. By correlating the percentage amounts of the products formed under the action of 5-lipoxygenase (5HETE, isomers of LTB4) in the absence as well as in the presence of different concentrations of compounds according to the invention, the IC50 -values, i.e. the concentrations which cause a 50% inhibition of 5-lipoxygenase, were determined graphically from semilogarithmic plots.

5-lipoxygenase [2] = target: T1, 5-lipoxygenase; assay: Inhibition of Cell-free 5-lipoxygenase from RBL-1-cells (polarographic, 10,000 × g supernatant); format: biochemical; details: 10,000 × g supernatant of homogenized RBL-1-cells; arachidonic acid 75 μM; 35° C.; calculated IC50
Protocol: Cell-free 5-lipoxygenase was polarographically measured from 10,000 × g supernatant of homogenized rat basophilic leucemia cells (M. Haurand & L. Flohe in Biol. Chem. Hoppe-Seyler 369, 133 to 142 (1988)). After preincubation of the 10,000 × g supernatant with arachidonic acid (75 μM), ATP (adenosine triphosphate; 4 mM), reduced glutathione (4 mM), and either a compound according to the invention (0.1 to 100 μM) or a solvent (ethanol and/or dimethyl sulfoxide) at 35° C. for 5 minutes, the lipoxygenase reaction was initiated by addition of calcium chloride (3 mM) and simultaneously recorded.
The activity of 5-lipoxygenase was determined from the difference in the pO2 -decrease before and after addition of calcium chloride. The evaluation included the initial rate of the reaction after the lag-phase as well as the duration of the lag-phase. In the concentration range of from 3 to 50 μM, the test substances induced lag-phases between 20 and 60 seconds.

CC(=O)N(O)Cc1ccc(C(O)C#Cc2ccccc2Cl)cc1 (stereo not drawn) [Example 9, N-Hydroxy-N-[4-[1-hydroxy-3-(2-chlorophenyl)prop-2-yn-1-yl]benzyl]acetamide]
IC50 (5-lipoxygenase [1]): 4 µM

CCOC(C#Cc1cccs1)c1ccc(CN(O)C(N)=O)cc1 (stereo not drawn) [Example 35, N-Hydroxy-N-[4-[1-ethoxy-3-(2-thienyl)prop-2yn-1-yl]benzyl]urea]
IC50 (5-lipoxygenase [2]): 5 µM | IC50 (5-lipoxygenase [1]): 3 µM

NC(=O)N(O)Cc1ccc(C(O)C#Cc2ccc(Cl)cc2)cc1 (stereo not drawn) [Example 24, N-Hydroxy-N-[4-[1-hydroxy-3-(4-chlorophenyl)prop-2-yn-1-yl]benzyl]urea]
IC50 (5-lipoxygenase [1]): 3 µM

CC(=O)OC(C#Cc1ccccc1)c1ccc(CN(O)C(C)=O)cc1 (stereo not drawn) [Example 4, N-Hydroxy-N-[4-[1-acetoxy-3-phenyl-prop-2-yn-1-yl]benzyl]acetamide]
IC50 (5-lipoxygenase [2]): 9 µM | IC50 (5-lipoxygenase [1]): 4 µM

NC(=O)N(O)Cc1ccc(C(O)C#Cc2cccs2)cc1 (stereo not drawn) [Example 27, N-Hydroxy-N-[4-[1-hydroxy-3-(2-thienyl)prop-2-yn-1-yl]benzyl]urea]
IC50 (5-lipoxygenase [1]): 3 µM

CCOC(C#Cc1ccccc1)c1ccc(CN(O)C(C)=O)cc1 (stereo not drawn) [Example 5]
IC50 (5-lipoxygenase [2]): 5 µM | IC50 (5-lipoxygenase [1]): 4 µM

CC(=O)N(O)Cc1ccc(C(O)C#Cc2ccccc2)cc1 (single isomer, unassigned; (+)) [Example 2, (+)-N-Hydroxy-N-[4-[1-hydroxy-3-phenyl-prop-2-yn-1-yl]benzyl]acetamide]
IC50 (5-lipoxygenase [1]): 4 µM

COc1cccc(C#CC(O)c2ccc(CN(O)C(C)=O)cc2)c1 (stereo not drawn) [Example 13, N-Hydroxy-N-[4-[1-hydroxy-3-(3-methoxyphenyl)prop-2-yn-1-yl]benzyl]acetamide]
IC50 (5-lipoxygenase [2]): 3 µM | IC50 (5-lipoxygenase [1]): 3 µM

CC(=O)N(O)Cc1cccc(C(O)C#Cc2ccccc2)c1 (stereo not drawn) [Example 19, N-Hydroxy-N-[3-[1-hydroxy-3-phenyl-prop-2-yn-1-yl]benzyl]acetamide]
IC50 (5-lipoxygenase [1]): 3 µM

NC(=O)N(O)Cc1cccc(C(O)C#Cc2ccccc2)c1 (stereo not drawn) [Example 29, N-Hydroxy-N-[3-[1-hydroxy-3-phenyl-prop-2-yn-1-yl]benzyl]urea]
IC50 (5-lipoxygenase [1]): 4 µM

CCOC(C#Cc1ccc(OC)c(OC)c1)c1ccc(CN(O)C(C)=O)cc1 (stereo not drawn) [Example 33, N-Hydroxy-N-[4-[1-ethoxy-3-(3,4-dimethoxyphenyl)prop-2-yn-1-yl]benzyl]acetamide]
IC50 (5-lipoxygenase [2]): 6 µM | IC50 (5-lipoxygenase [1]): 5 µM

CC(=O)N(O)C(C)c1ccc(C(O)C#Cc2ccccc2)cc1 (stereo not drawn) [Example 6, N-Hydroxy-N-[1-[4-(1-hydroxy-3-phenyl-prop-2-yn-1-yl)phenyl]ethyl]acetamide]
IC50 (5-lipoxygenase [2]): 8 µM

CC(=O)N(O)Cc1cccc(C(O)C#Cc2ccsc2)c1 (stereo not drawn) [Example 20, N-Hydroxy-N-[3-[1-hydroxy-3-(3-thienyl)prop-2-yn-1-yl]benzyl]acetamide]
IC50 (5-lipoxygenase [2]): 7 µM
